Measurements from patent US6355799B1, “Substituted benzene compounds, process for their preparation, and herbicidal and defoliant compositions containing them” (ISK Americas Incorporated, priority 1997, dated 2002).

Key:
Type in all cases: in vivo
[1] = test system: redroot pigweed (Amaranthus retroflexus, AMARE); assay: Pre-emerge test, greenhouse herbicide activity screening; conditions: for Pre-emerge Herbicidal Activity, phytotoxicity rating (0-100), AMARE: rated 14 days after application, 0 = no damage, 100 = complete death; for Pre-emerge Herbicidal Activity AMARE: phytotoxicity rating 0-100, 14 days after application
Method in brief: (§1)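 Plants grown in 10 cm pots of sandy loam mix received acetone-dissolved compounds through a moving flat-fan nozzle. Doses ranged from 15 to 1000 g ai/ha. Pre-emerge pots were seeded one day earlier, post-emerge pots 8–21 days earlier. Fourteen days on, each pot was graded 0–100 for damage.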

[2] = test system: barnyardgrass (Echinochloa crus-galli, ECHCG); assay: as above; conditions: for Pre-emerge Herbicidal Activity, phytotoxicity rating (0-100), ECHCG: rated 14 days after application, 0 = no damage, 100 = complete death; for Pre-emerge Herbicidal Activity ECHCG: phytotoxicity rating 0-100, 14 days after application
Method in brief: (§2)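 Visual ratings on a 0-100 scale (0 no damage, 100 all plants dead) were taken at 14 days after treatment. Rates of 15-1000 g ai/ha in acetone, 187 l/ha, were sprayed onto soil one day after planting (pre-emerge) or onto 2-3 leaf plants with 0.25% v/v surfactant (post-emerge).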

[3] = test system: green foxtail (Setaria viridis, SETVI); assay: as above; conditions: for Pre-emerge Herbicidal Activity, phytotoxicity rating (0-100), SETVI: rated 14 days after application, 0 = no damage, 100 = complete death; for Pre-emerge Herbicidal Activity SETVI: phytotoxicity rating 0-100, 14 days after application
Method in brief: as §2

[4] = test system: ivyleaf morningglory (Ipomoea hederacea, IPOHE); assay: as above; conditions: for Pre-emerge Herbicidal Activity, phytotoxicity rating (0-100), IPOHE: rated 14 days after application, 0 = no damage, 100 = complete death; for Pre-emerge Herbicidal Activity IPOHE: phytotoxicity rating 0-100, 14 days after application
Method in brief: as §2

[5] = test system: johnsongrass (Sorghum halepense, SORHA); assay: as above; conditions: for Pre-emerge Herbicidal Activity, phytotoxicity rating (0-100), SORHA: rated 14 days after application, 0 = no damage, 100 = complete death; for Pre-emerge Herbicidal Activity SORHA: phytotoxicity rating 0-100, 14 days after application
Method in brief: as §2

[6] = test system: lambsquarters (Chenopodium album, CHEAL); assay: as above; conditions: for Pre-emerge Herbicidal Activity, phytotoxicity rating (0-100), CHEAL: rated 14 days after application, 0 = no damage, 100 = complete death; for Pre-emerge Herbicidal Activity CHEAL: phytotoxicity rating 0-100, 14 days after application
Method in brief: as §2

[7] = test system: large crabgrass (Digitaria sanguinalis, DIGSA); assay: as above; conditions: for Pre-emerge Herbicidal Activity, phytotoxicity rating (0-100), DIGSA: rated 14 days after application, 0 = no damage, 100 = complete death; for Pre-emerge Herbicidal Activity DIGSA: phytotoxicity rating 0-100, 14 days after application
Method in brief: as §2

[8] = test system: sicklepod (Cassia obtusifolia, CASOB); assay: as above; conditions: for Pre-emerge Herbicidal Activity, phytotoxicity rating (0-100), CASOB: rated 14 days after application, 0 = no damage, 100 = complete death; for Pre-emerge Herbicidal Activity CASOB: phytotoxicity rating 0-100, 14 days after application
Method in brief: as §2

[9] = test system: velvetleaf (Abutilon theophrasti, ABUTH); assay: as above; conditions: for Pre-emerge Herbicidal Activity, phytotoxicity rating (0-100), ABUTH: rated 14 days after application, 0 = no damage, 100 = complete death; for Pre-emerge Herbicidal Activity ABUTH: phytotoxicity rating 0-100, 14 days after application
Method in brief: as §2

[10] = test system: field corn (Zea mays L., var. Dekalb 535, CORN); assay: Pre-emerge test, crop safety; conditions: for Pre-emerge phytotoxicity rating (0-100), crop damage, CORN: rated 14 days after application, 0 = no damage, 100 = complete death; for Pre-emerge Herbicidal Activity CORN: crop damage rating 0-100, 14 days after application
Method in brief: as §1

[11] = test system: upland rice (Oryza sp., var. Tebonnet, RICE); assay: Pre-emerge test, crop safety; conditions: for Pre-emerge phytotoxicity rating (0-100), crop damage, RICE: rated 14 days after application, 0 = no damage, 100 = complete death; for Pre-emerge Herbicidal Activity RICE: crop damage rating 0-100, 14 days after application
Method in brief: as §1

[12] = test system: barnyardgrass (Echinochloa crus-galli, ECHCG); assay: Post-emerge test, greenhouse herbicide activity screening; conditions: post-emerge, 14 days after application, rating scale 0-100
Method in brief: (§3)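 Each test used a mechanized track sprayer delivering 187 l/ha of acetone solution at 15–1000 g ai/ha. Post-emerge foliage at 2–3 leaves was treated with added 0.25% v/v non-ionic surfactant and bottom-watered only. Injury was assessed on day 14, where 100 means total kill.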

[13] = test system: green foxtail (Setaria viridis, SETVI); assay: as above; conditions: post-emerge, 14 days after application, rating scale 0-100
Method in brief: as §3

[14] = test system: ivyleaf morningglory (Ipomoea hederacea, IPOHE); assay: as above; conditions: post-emerge, 14 days after application, rating scale 0-100
Method in brief: as §3

[15] = test system: johnsongrass (Sorghum halepense, SORHA); assay: as above; conditions: post-emerge, 14 days after application, rating scale 0-100
Method in brief: as §3

[16] = test system: lambsquarters (Chenopodium album, CHEAL); assay: as above; conditions: post-emerge, 14 days after application, rating scale 0-100
Method in brief: as §3

[17] = test system: large crabgrass (Digitaria sanguinalis, DIGSA); assay: as above; conditions: post-emerge, 14 days after application, rating scale 0-100
Method in brief: as §3

[18] = test system: redroot pigweed (Amaranthus retroflexus, AMARE); assay: as above; conditions: post-emerge, 14 days after application
Method in brief: as §3

[19] = test system: sicklepod (Cassia obtusifolia, CASOB); assay: as above; conditions: post-emerge, 14 days after application, rating scale 0-100
Method in brief: as §3

[20] = test system: velvetleaf (Abutilon theophrasti, ABUTH); assay: as above; conditions: post-emerge, 14 days after application, rating scale 0-100
Method in brief: as §3

[21] = test system: field corn (Zea mays L., var. Dekalb 535, CORN); assay: Post-emerge test, crop safety; conditions: post-emerge, 14 days after application, rating scale 0-100
Method in brief: as §2

[22] = test system: upland rice (Oryza sp., var. Tebonnet, RICE); assay: Post-emerge test, crop safety; conditions: post-emerge, 14 days after application, rating scale 0-100
Method in brief: as §2

[23] = 250 g ai/ha, rating scale 0-100

Cn1c(C(F)(F)F)cc(=O)n(-c2c(F)cc(Cl)c(O)c2NC(=O)c2ncccn2)c1=O [2-102]
Pre-emerge Herbicidal Activity, phytotoxicity rating (0-100), AMARE ([1]; 63 g ai/ha): 30 | Pre-emerge Herbicidal Activity, phytotoxicity rating (0-100), AMARE ([1]; 250 g ai/ha): 0 | Pre-emerge Herbicidal Activity, phytotoxicity rating (0-100), ECHCG ([2]; 63 g ai/ha): 0 | Pre-emerge Herbicidal Activity, phytotoxicity rating (0-100), ECHCG ([2]; 250 g ai/ha): 0 | Pre-emerge Herbicidal Activity, phytotoxicity rating (0-100), SETVI ([3]; 63 g ai/ha): 0 | Pre-emerge Herbicidal Activity, phytotoxicity rating (0-100), SETVI ([3]; 250 g ai/ha): 0 | Pre-emerge Herbicidal Activity, phytotoxicity rating (0-100), IPOHE ([4]; 63 g ai/ha): 0 | Pre-emerge Herbicidal Activity, phytotoxicity rating (0-100), IPOHE ([4]; 250 g ai/ha): 0 | Pre-emerge Herbicidal Activity, phytotoxicity rating (0-100), SORHA ([5]; 63 g ai/ha): 0 | Pre-emerge Herbicidal Activity, phytotoxicity rating (0-100), SORHA ([5]; 250 g ai/ha): 0 | Pre-emerge Herbicidal Activity, phytotoxicity rating (0-100), CHEAL ([6]; 63 g ai/ha): 0 | Pre-emerge Herbicidal Activity, phytotoxicity rating (0-100), CHEAL ([6]; 250 g ai/ha): 0 | Pre-emerge Herbicidal Activity, phytotoxicity rating (0-100), DIGSA ([7]; 63 g ai/ha): 0 | Pre-emerge Herbicidal Activity, phytotoxicity rating (0-100), DIGSA ([7]; 250 g ai/ha): 0 | Pre-emerge Herbicidal Activity, phytotoxicity rating (0-100), CASOB ([8]; 63 g ai/ha): 0 | Pre-emerge Herbicidal Activity, phytotoxicity rating (0-100), CASOB ([8]; 250 g ai/ha): 0 | Pre-emerge Herbicidal Activity, phytotoxicity rating (0-100), ABUTH ([9]; 63 g ai/ha): 0 | Pre-emerge Herbicidal Activity, phytotoxicity rating (0-100), ABUTH ([9]; 250 g ai/ha): 0 | Pre-emerge phytotoxicity rating (0-100), crop damage, CORN ([10]; 63 g ai/ha): 0 | Pre-emerge phytotoxicity rating (0-100), crop damage, CORN ([10]; 250 g ai/ha): 0 | Pre-emerge phytotoxicity rating (0-100), crop damage, RICE ([11]; 63 g ai/ha): 0 | Pre-emerge phytotoxicity rating (0-100), crop damage, RICE ([11]; 250 g ai/ha): 0 | phytotoxicity rating ECHCG ([12]; 63 g ai/ha): 0 | phytotoxicity rating ECHCG ([12]; 250 g ai/ha): 0 | phytotoxicity rating SETVI ([13]; 63 g ai/ha): 0 | phytotoxicity rating SETVI ([13]; 250 g ai/ha): 0 | phytotoxicity rating IPOHE ([14]; 63 g ai/ha): 0 | phytotoxicity rating IPOHE ([14]; 250 g ai/ha): 0 | phytotoxicity rating SORHA ([15]; 63 g ai/ha): 0 | phytotoxicity rating SORHA ([15]; 250 g ai/ha): 0 | phytotoxicity rating CHEAL ([16]; 63 g ai/ha): 0 | phytotoxicity rating CHEAL ([16]; 250 g ai/ha): 0 | phytotoxicity rating DIGSA ([17]; 63 g ai/ha): 0 | phytotoxicity rating DIGSA ([17]; 250 g ai/ha): 0 | phytotoxicity rating AMARE ([18]; 63 g ai/ha, rating scale 0-100): 0 | phytotoxicity rating AMARE [18, 23]: 40 | phytotoxicity rating CASOB ([19]; 63 g ai/ha): 0 | phytotoxicity rating CASOB ([19]; 250 g ai/ha): 0 | phytotoxicity rating ABUTH ([20]; 63 g ai/ha): 0 | phytotoxicity rating ABUTH ([20]; 250 g ai/ha): 30 | phytotoxicity rating CORN ([21]; 63 g ai/ha): 0 | phytotoxicity rating CORN ([21]; 250 g ai/ha): 0 | phytotoxicity rating RICE ([22]; 63 g ai/ha): 0 | phytotoxicity rating RICE ([22]; 250 g ai/ha): 0

COc1c(Cl)cc(F)c(-n2c(=O)cc(C(F)(F)F)n(C)c2=O)c1NC(=O)OCc1ccc(F)cc1 [4-7]
Pre-emerge Herbicidal Activity AMARE ([1]; 63 g ai/ha): 100 | Pre-emerge Herbicidal Activity AMARE ([1]; 250 g ai/ha): 100 | Pre-emerge Herbicidal Activity ECHCG ([2]; 63 g ai/ha): 70 | Pre-emerge Herbicidal Activity ECHCG ([2]; 250 g ai/ha): 90 | Pre-emerge Herbicidal Activity SETVI ([3]; 63 g ai/ha): 100 | Pre-emerge Herbicidal Activity SETVI ([3]; 250 g ai/ha): 100 | Pre-emerge Herbicidal Activity IPOHE ([4]; 63 g ai/ha): 80 | Pre-emerge Herbicidal Activity IPOHE ([4]; 250 g ai/ha): 100 | Pre-emerge Herbicidal Activity SORHA ([5]; 63 g ai/ha): 80 | Pre-emerge Herbicidal Activity SORHA ([5]; 250 g ai/ha): 95 | Pre-emerge Herbicidal Activity CHEAL ([6]; 63 g ai/ha): 100 | Pre-emerge Herbicidal Activity CHEAL ([6]; 250 g ai/ha): 100 | Pre-emerge Herbicidal Activity DIGSA ([7]; 63 g ai/ha): 100 | Pre-emerge Herbicidal Activity DIGSA ([7]; 250 g ai/ha): 100 | Pre-emerge Herbicidal Activity CASOB ([8]; 63 g ai/ha): 70 | Pre-emerge Herbicidal Activity CASOB ([8]; 250 g ai/ha): 100 | Pre-emerge Herbicidal Activity ABUTH ([9]; 63 g ai/ha): 100 | Pre-emerge Herbicidal Activity ABUTH ([9]; 250 g ai/ha): 100 | Pre-emerge Herbicidal Activity CORN ([10]; 63 g ai/ha): 60 | Pre-emerge Herbicidal Activity CORN ([10]; 250 g ai/ha): 95 | Pre-emerge Herbicidal Activity RICE ([11]; 63 g ai/ha): 70 | Pre-emerge Herbicidal Activity RICE ([11]; 250 g ai/ha): 100 | phytotoxicity rating ECHCG ([12]; 63 g ai/ha): 50 | phytotoxicity rating ECHCG ([12]; 250 g ai/ha): 100 | phytotoxicity rating SETVI ([13]; 63 g ai/ha): 70 | phytotoxicity rating SETVI ([13]; 250 g ai/ha): 100 | phytotoxicity rating IPOHE ([14]; 63 g ai/ha): 100 | phytotoxicity rating IPOHE ([14]; 250 g ai/ha): 100 | phytotoxicity rating SORHA ([15]; 63 g ai/ha): 90 | phytotoxicity rating SORHA ([15]; 250 g ai/ha): 90 | phytotoxicity rating CHEAL ([16]; 63 g ai/ha): 100 | phytotoxicity rating CHEAL ([16]; 250 g ai/ha): 100 | phytotoxicity rating DIGSA ([17]; 63 g ai/ha): 40 | phytotoxicity rating DIGSA ([17]; 250 g ai/ha): 90 | phytotoxicity rating AMARE ([18]; 63 g ai/ha, rating scale 0-100 (0 no damage, 100 complete death)): 100 | phytotoxicity rating AMARE [18, 23]: 100 | phytotoxicity rating CASOB ([19]; 63 g ai/ha): 100 | phytotoxicity rating CASOB ([19]; 250 g ai/ha): 100 | phytotoxicity rating ABUTH ([20]; 63 g ai/ha): 100 | phytotoxicity rating ABUTH ([20]; 250 g ai/ha): 100 | phytotoxicity rating CORN (crop damage) ([21]; 63 g ai/ha): 90 | phytotoxicity rating CORN (crop damage) ([21]; 250 g ai/ha): 100 | phytotoxicity rating RICE (crop damage) ([22]; 63 g ai/ha): 65 | phytotoxicity rating RICE (crop damage) ([22]; 250 g ai/ha): 90
